Measurements published in the supplement of paper PMC10307832.

Key:
Test in all cases: relative viability (nuclei count vs DMSO), 5 days (fraction); higher = more cells survive
NCI-H2342 = tested on: NCI-H2342
Summary of the method: (§1)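 Lung cancer cell lines were pin-tool dosed in 1536-well plates on the day after seeding, with either a lone drug or a fixed anchor-drug dose plus five library-drug doses (not always all listed) in √10 steps. Nuclei were counted on 4× images after 5 days. Relative viability is the ratio of treated-well to vehicle-well nuclei counts, with each value a median of duplicate plates.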

EKVX = tested on: EKVX
Summary of the method: as §1

HCC-78 = tested on: HCC-78
Summary of the method: as §1

NCI-H1755 = tested on: NCI-H1755
Summary of the method: as §1

LXF-289 = tested on: LXF-289
Summary of the method: as §1

SK-LU-1 = tested on: SK-LU-1
Summary of the method: as §1

NCI-H1648 = tested on: NCI-H1648
Summary of the method: as §1

BEN = tested on: BEN
Summary of the method: as §1

NCI-H1650 = tested on: NCI-H1650
Summary of the method: as §1

HCC-366 = tested on: HCC-366
Summary of the method: as §1

HCC-15 = tested on: HCC-15
Summary of the method: as §1

LU99A = tested on: LU99A
Summary of the method: as §1

NCI-H1993 = tested on: NCI-H1993
Summary of the method: as §1

HARA = tested on: HARA
Summary of the method: as §1

COR-L23 = tested on: COR-L23
Summary of the method: as §1

201T = tested on: 201T
Summary of the method: as §1

HCC-827 = tested on: HCC-827
Summary of the method: as §1

NCI-H3122 = tested on: NCI-H3122
Summary of the method: as §1

NCI-H1944 = tested on: NCI-H1944
Summary of the method: as §1

COR-L 105 = tested on: COR-L 105
Summary of the method: as §1

NCI-H1975 = tested on: NCI-H1975
Summary of the method: as §1

NCI-H522 = tested on: NCI-H522
Summary of the method: as §1

NCI-H1734 = tested on: NCI-H1734
Summary of the method: as §1

For `CCCCCCCCCCCC1=C(O)C(=O)C=C(O)C1=O` [Embelin] + CC(=O)c1c(C)c2cnc(Nc3ccc(N4CCNCC4)cn3)nc2n(C2CCCC2)c1=O [Palbociclib] (partner 0.5 µM), the relative viability (NCI-H2342; first compound 0.08 µM) was 0.54, the relative viability (NCI-H2342; first compound 0.8 µM) was 0.514 and the relative viability (NCI-H2342; first compound 2.53 µM) was 0.542. For the same molecule, the relative viability (NCI-H2342; first compound 8 µM) was 0.439, the relative viability (EKVX; first compound 0.08 µM) was 0.411 and the relative viability (EKVX; first compound 0.8 µM) was 0.432. For the same molecule, the relative viability (EKVX; first compound 2.53 µM) was 0.466, the relative viability (EKVX; first compound 8 µM) was 0.394 and the relative viability (HCC-78; first compound 0.08 µM) was 0.514. The relative viability (HCC-78; first compound 0.8 µM) was 0.446, the relative viability (HCC-78; first compound 2.53 µM) was 0.558 and the relative viability (HCC-78; first compound 8 µM) was 0.48. It also gave a relative viability (NCI-H1755; first compound 0.08 µM) of 0.471, a relative viability (NCI-H1755; first compound 0.8 µM) of 0.483 and a relative viability (NCI-H1755; first compound 2.53 µM) of 0.376. It also gave a relative viability (NCI-H1755; first compound 8 µM) of 0.427, a relative viability (LXF-289; first compound 0.08 µM) of 0.594 and a relative viability (LXF-289; first compound 0.8 µM) of 0.59. It also gave a relative viability (LXF-289; first compound 2.53 µM) of 0.649, a relative viability (LXF-289; first compound 8 µM) of 0.613 and a relative viability (SK-LU-1; first compound 0.08 µM) of 0.419. The relative viability (SK-LU-1; first compound 0.8 µM) was 0.41, the relative viability (SK-LU-1; first compound 2.53 µM) was 0.621 and the relative viability (SK-LU-1; first compound 8 µM) was 0.274. It also gave a relative viability (NCI-H1648; first compound 0.08 µM) of 0.205, a relative viability (NCI-H1648; first compound 0.8 µM) of 0.23 and a relative viability (NCI-H1648; first compound 2.53 µM) of 0.241. For the same molecule, the relative viability (NCI-H1648; first compound 8 µM) was 0.297, the relative viability (BEN; first compound 0.08 µM) was 0.486 and the relative viability (BEN; first compound 0.8 µM) was 0.545. For the same molecule, the relative viability (BEN; first compound 2.53 µM) was 0.486, the relative viability (BEN; first compound 8 µM) was 0.481 and the relative viability (NCI-H1650; first compound 0.08 µM) was 0.358. For the same molecule, the relative viability (NCI-H1650; first compound 0.8 µM) was 0.406, the relative viability (NCI-H1650; first compound 2.53 µM) was 0.38 and the relative viability (NCI-H1650; first compound 8 µM) was 0.354. It also gave a relative viability (HCC-366; first compound 0.08 µM) of 0.35, a relative viability (HCC-366; first compound 0.8 µM) of 0.391 and a relative viability (HCC-366; first compound 2.53 µM) of 0.49. The relative viability (HCC-366; first compound 8 µM) was 0.453, the relative viability (HCC-15; first compound 0.08 µM) was 0.703 and the relative viability (HCC-15; first compound 0.8 µM) was 0.757. It also gave a relative viability (HCC-15; first compound 2.53 µM) of 0.857, a relative viability (HCC-15; first compound 8 µM) of 0.774 and a relative viability (LU99A; first compound 0.08 µM) of 0.471. It also gave a relative viability (LU99A; first compound 0.8 µM) of 0.411, a relative viability (LU99A; first compound 2.53 µM) of 0.394 and a relative viability (LU99A; first compound 8 µM) of 0.374. The relative viability (NCI-H1993; first compound 0.08 µM) was 0.641, the relative viability (NCI-H1993; first compound 0.8 µM) was 0.674 and the relative viability (NCI-H1993; first compound 2.53 µM) was 0.721. The relative viability (NCI-H1993; first compound 8 µM) was 0.614, the relative viability (HARA; first compound 0.08 µM) was 0.269 and the relative viability (HARA; first compound 0.8 µM) was 0.324. For the same molecule, the relative viability (HARA; first compound 2.53 µM) was 0.301, the relative viability (HARA; first compound 8 µM) was 0.32 and the relative viability (COR-L23; first compound 0.08 µM) was 0.346. For the same molecule, the relative viability (COR-L23; first compound 0.8 µM) was 0.351, the relative viability (COR-L23; first compound 2.53 µM) was 0.313 and the relative viability (COR-L23; first compound 8 µM) was 0.299. The relative viability (201T; first compound 0.08 µM) was 0.375, the relative viability (201T; first compound 0.8 µM) was 0.377 and the relative viability (201T; first compound 2.53 µM) was 0.391. For the same molecule, the relative viability (201T; first compound 8 µM) was 0.353, the relative viability (HCC-827; first compound 0.08 µM) was 0.506 and the relative viability (HCC-827; first compound 0.8 µM) was 0.486. It also gave a relative viability (HCC-827; first compound 2.53 µM) of 0.511, a relative viability (HCC-827; first compound 8 µM) of 0.461 and a relative viability (NCI-H3122; first compound 0.08 µM) of 0.18. The relative viability (NCI-H3122; first compound 0.8 µM) was 0.236, the relative viability (NCI-H3122; first compound 2.53 µM) was 0.175 and the relative viability (NCI-H3122; first compound 8 µM) was 0.186. For the same molecule, the relative viability (NCI-H1944; first compound 0.08 µM) was 0.346, the relative viability (NCI-H1944; first compound 0.8 µM) was 0.405 and the relative viability (NCI-H1944; first compound 2.53 µM) was 0.381. For the same molecule, the relative viability (NCI-H1944; first compound 8 µM) was 0.306, the relative viability (COR-L 105; first compound 0.08 µM) was 0.435 and the relative viability (COR-L 105; first compound 0.8 µM) was 0.399. For the same molecule, the relative viability (COR-L 105; first compound 2.53 µM) was 0.405, the relative viability (COR-L 105; first compound 8 µM) was 0.439 and the relative viability (NCI-H1975; first compound 0.08 µM) was 0.601. For the same molecule, the relative viability (NCI-H1975; first compound 0.8 µM) was 0.605, the relative viability (NCI-H1975; first compound 2.53 µM) was 0.783 and the relative viability (NCI-H1975; first compound 8 µM) was 0.586. The relative viability (NCI-H522; first compound 0.08 µM) was 1.09, the relative viability (NCI-H522; first compound 0.8 µM) was 1.21 and the relative viability (NCI-H522; first compound 2.53 µM) was 1.01. The relative viability (NCI-H522; first compound 8 µM) was 0.983, the relative viability (NCI-H1734; first compound 0.08 µM) was 0.347 and the relative viability (NCI-H1734; first compound 0.8 µM) was 0.349. It also gave a relative viability (NCI-H1734; first compound 2.53 µM) of 0.392 and a relative viability (NCI-H1734; first compound 8 µM) of 0.346.
